From EP4603105A1, “PHARMACEUTICAL COMPOSITION CONTAINING CYCLIC COMPOUND HAVING SELECTIVE KRAS INHIBITORY EFFECT AGAINST HRAS AND NRAS” (CHUGAI SEIYAKU KABUSHIKI KAISHA, priority 2022, dated 2024)

Key:
[1] = biological target: GDP-bound KRAS wild-type protein (Homo sapiens, UniProt P01116); assay: Binding to KRAS by surface plasmon resonance (SPR), dissociation constant KD; conditions: Single Cycle Kinetics, 1:1 binding model
In short: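 Captured GDP-RAS (~100–300 RU) was exposed to increasing compound concentrations, 75 s per step, in running buffer with 10 µM GDP, 10 mM MgCl2 and 4% DMSO at pH 7.4.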

[2] = biological target: GDP-bound NRAS wild-type protein (Homo sapiens, UniProt P01111); assay: Binding to NRAS by surface plasmon resonance (SPR), KD and KD ratio to KRAS; conditions: ratio of KD with respect to GDP-bound NRAS wild-type protein to KD with respect to KRAS
GDP-bound NRAS wild-type protein, sequence (P01111 whole entry): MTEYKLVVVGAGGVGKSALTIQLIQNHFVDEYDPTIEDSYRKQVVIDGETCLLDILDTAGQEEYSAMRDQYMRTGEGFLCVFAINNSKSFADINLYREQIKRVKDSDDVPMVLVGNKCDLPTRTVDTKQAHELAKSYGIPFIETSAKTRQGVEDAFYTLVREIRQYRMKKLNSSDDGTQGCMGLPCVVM
In short: (§1)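 Running buffer contained 10 µM GDP and 10 mM MgCl2 to keep RAS in the GDP state, with 4% DMSO at pH 7.4. Compounds were flowed at 100 µL/min in 75 s steps of rising concentration over captured biotin-Avi RAS at 30°C. Sensorgrams were fitted 1:1 for KD.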

HRAS wild-type protein = HRAS wild-type protein (Homo sapiens, UniProt P01112); assay: Binding to HRAS by surface plasmon resonance (SPR), KD and KD ratio to KRAS; conditions: ratio of KD with respect to HRAS wild-type protein to KD with respect to KRAS
HRAS wild-type protein, sequence (P01112 whole entry): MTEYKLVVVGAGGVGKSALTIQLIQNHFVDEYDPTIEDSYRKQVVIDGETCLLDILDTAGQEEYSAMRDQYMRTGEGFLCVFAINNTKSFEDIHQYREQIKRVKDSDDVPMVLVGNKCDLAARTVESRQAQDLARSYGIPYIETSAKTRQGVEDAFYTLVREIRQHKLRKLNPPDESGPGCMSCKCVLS
In short: as §1

[3] = system: human lung cancer strain NCI-H441; assay: NCI-H441 cell proliferation inhibitory activity (CellTiter-Glo, 4 days); format: cell-based; conditions: 50% proliferation inhibitory concentration, four days, read-out: NCl-H441 IC50
In short: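 Step one: dispense the test compound in serial DMSO dilutions. Step three: add the reagent and measure […].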

GDP-bound KRAS wild-type protein, sequence (P01116 1-188 isoform P01116-2): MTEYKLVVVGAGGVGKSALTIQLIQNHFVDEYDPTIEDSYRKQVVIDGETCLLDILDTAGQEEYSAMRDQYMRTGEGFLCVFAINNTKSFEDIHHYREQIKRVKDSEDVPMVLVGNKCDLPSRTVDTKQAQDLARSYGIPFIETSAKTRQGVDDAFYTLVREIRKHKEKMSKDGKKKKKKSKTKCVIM

SMILES | Kd [1] | NRAS /KRAS [2] | HRAS /KRAS (HRAS wild-type protein) | IC50 [3]
CCO[C@@H]1C[C@H]2C(=O)NC3(CCC3)C(=O)N(C)[C@@H](C(CC)CC)C(=O)N(C)[C@H](C(=O)N(C)C)CC(=O)N(C)[C@@H](CC)C(=O)N[C@@H]([C@@H](C)CC)C(=O)N(C)CC(=O)N(C)[C@H]3C/C=C\CCN(C3=O)[C@@H](Cc3ccc(C(F)(F)F)cc3)C(=O)N(C)CC(=O)N[C@@H](CCc3cc(F)c(Cl)c(F)c3)C(=O)N2C1 [PP1230] | 0.77 nM | A (a compound having 10 or more and less than 20 is denoted as A) | A (a compound having 10 or more and less than 20 is denoted as A) | 110 nM
CCC[C@H]1C(=O)N[C@@H]([C@@H](C)CC)C(=O)N(C)CC(=O)N(C)[C@H]2C/C=C\CCN(C2=O)[C@@H](Cc2ccc(C(F)(F)F)cc2)C(=O)N(C)CC(=O)N[C@@H](CCc2cc(F)c(Cl)c(F)c2)C(=O)N2C[C@H](OCC)C[C@H]2C(=O)NC2(CCC2)C(=O)N(C)[C@@H](C(CC)CC)C(=O)N(C)[C@H](C(=O)N(C)C)CC(=O)N1C [PP1231] | 0.56 nM | AA (a compound having 20 or more is denoted as AA) | A (a compound having 10 or more and less than 20 is denoted as A) | 23.1 nM
CCO[C@@H]1C[C@H]2C(=O)NC3(CCC3)C(=O)N(C)[C@@H](C3CCCC3)C(=O)N(C)[C@@H](C(=O)N(C)C)CC(=O)N(C)[C@@H](CC)C(=O)N[C@@H]([C@@H](C)CC)C(=O)N(C)CC(=O)N(C)[C@H]3C/C=C\CCN(C3=O)[C@@H](Cc3ccc(C(F)(F)F)cc3)C(=O)N(C)CC(=O)N[C@@H](CCc3cc(F)c(C(F)(F)F)c(F)c3)C(=O)N2C1 [PP1234] | 3.8 nM | B (a compound having 3 or more and less than 10 is denoted as B) | C (A compound having a KD ratio of 0.1 or more and less than 3 is denoted as C) | 398 nM
CCCCCC[C@H]1C(=O)N[C@@H]([C@@H](C)CC)C(=O)N(C)CC(=O)N(C)[C@H]2C/C=C\CCN(C2=O)[C@@H](Cc2ccc(C(F)(F)F)cc2)C(=O)N(C)CC(=O)N[C@@H](CCc2cc(F)c(C(F)(F)F)c(F)c2)C(=O)N2C[C@H](OCC)C[C@H]2C(=O)NC2(CCC2)C(=O)N(C)[C@@H](C2CCCC2)C(=O)N(C)[C@H](C(=O)N(C)C)CC(=O)N1C [PP1242] | 0.076 nM | A (a compound having 10 or more and less than 20 is denoted as A) | A (a compound having 10 or more and less than 20 is denoted as A) | 12.8 nM
CCO[C@@H]1C[C@H]2C(=O)NC3(CCC3)C(=O)N(C)[C@@H](C3CCCC3)C(=O)N(C)[C@H](C(=O)N(C)C)CC(=O)N(C)[C@@H](CC(C)C)C(=O)N[C@@H]([C@@H](C)CC)C(=O)N(C)CC(=O)N(C)[C@H]3C/C=C\CCN(C3=O)[C@@H](Cc3ccc(C(F)(F)F)cc3)C(=O)N(C)CC(=O)N[C@@H](CCc3ccc(C(F)(F)F)c(OC)c3)C(=O)N2C1 [PP1245] | 0.06 nM | A (a compound having 10 or more and less than 20 is denoted as A) | B (a compound having 3 or more and less than 10 is denoted as B) | 3.7 nM
CCCCCC[C@H]1C(=O)N[C@@H]([C@@H](C)CC)C(=O)N(C)CC(=O)N(C)[C@H]2C/C=C\CCN(C2=O)[C@@H](Cc2ccc(C(F)(F)F)cc2)C(=O)N(C)CC(=O)N[C@@H](CCc2ccc(C(F)(F)F)c(OC)c2)C(=O)N2C[C@H](OCC)C[C@H]2C(=O)NC2(CCC2)C(=O)N(C)[C@@H](C2CCCC2)C(=O)N(C)[C@H](C(=O)N(C)C)CC(=O)N1C [PP1246] | 0.081 nM | A (a compound having 10 or more and less than 20 is denoted as A) | A (a compound having 10 or more and less than 20 is denoted as A) | 9 nM
CCO[C@@H]1C[C@H]2C(=O)NC3(CCC3)C(=O)N(C)[C@@H](C3CCCC3)C(=O)N(C)[C@H](C(=O)N(C)C)CC(=O)N(C)[C@@H](CC3CC3)C(=O)N[C@@H]([C@@H](C)CC)C(=O)N(C)CC(=O)N(C)[C@H]3C/C=C\CCN(C3=O)[C@@H](Cc3ccc(C(F)(F)F)cc3)C(=O)N(C)CC(=O)N[C@@H](CCc3ccc(C(F)(F)F)c(OC)c3)C(=O)N2C1 [PP1247] | 0.046 nM | A (a compound having 10 or more and less than 20 is denoted as A) | A (a compound having 10 or more and less than 20 is denoted as A) | 6.4 nM
CCO[C@@H]1C[C@H]2C(=O)NC3(CCC3)C(=O)N(C)[C@@H](C3CCCC3)C(=O)N(C)[C@H](C(=O)N(C)C)CC(=O)N(C)[C@@H](CC3CCCC3)C(=O)N[C@@H]([C@@H](C)CC)C(=O)N(C)CC(=O)N(C)[C@H]3C/C=C\CCN(C3=O)[C@@H](Cc3ccc(C(F)(F)F)cc3)C(=O)N(C)CC(=O)N[C@@H](CCc3ccc(C(F)(F)F)c(OC)c3)C(=O)N2C1 [PP1248] | 0.069 nM | A (a compound having 10 or more and less than 20 is denoted as A) | A (a compound having 10 or more and less than 20 is denoted as A) | 7.3 nM
CCO[C@@H]1C[C@H]2C(=O)NC3(CCC3)C(=O)N(C)[C@@H](C3CCCC3)C(=O)N(C)[C@H](C(=O)N(C)C)CC(=O)N(C)[C@@H](CC)C(=O)N[C@@H]([C@@H](C)CC)C(=O)N(C)CC(=O)N(C)[C@H]3C/C=C\CCN(C3=O)[C@@H](Cc3ccc(C(F)(F)F)cc3)C(=O)N(C)CC(=O)N[C@@H](CCc3ccc(Cl)c(Cl)c3)C(=O)N2C1 [PP1249] | 0.18 nM | A (a compound having 10 or more and less than 20 is denoted as A) | A (a compound having 10 or more and less than 20 is denoted as A) | 55.4 nM
CCO[C@@H]1C[C@H]2C(=O)NC3(CCC3)C(=O)N(C)[C@@H](C3CCCC3)C(=O)N(C)[C@H](C(=O)N(C)C)CC(=O)N(C)[C@@H](CC(C)C)C(=O)N[C@@H]([C@@H](C)CC)C(=O)N(C)CC(=O)N(C)[C@H]3C/C=C\CCN(C3=O)[C@@H](Cc3ccc(C(F)(F)F)cc3)C(=O)N(C)CC(=O)N[C@@H](CCc3ccc(Cl)c(Cl)c3)C(=O)N2C1 [PP1251] | 0.18 nM | AA (a compound having 20 or more is denoted as AA) | A (a compound having 10 or more and less than 20 is denoted as A) | 10.2 nM
CCCCCC[C@H]1C(=O)N[C@@H]([C@@H](C)CC)C(=O)N(C)CC(=O)N(C)[C@H]2C/C=C\CCN(C2=O)[C@@H](Cc2ccc(C(F)(F)F)cc2)C(=O)N(C)CC(=O)N[C@@H](CCc2ccc(Cl)c(Cl)c2)C(=O)N2C[C@H](OCC)C[C@H]2C(=O)NC2(CCC2)C(=O)N(C)[C@@H](C2CCCC2)C(=O)N(C)[C@H](C(=O)N(C)C)CC(=O)N1C [PP1252] | 0.3 nM | AA (a compound having 20 or more is denoted as AA) | A (a compound having 10 or more and less than 20 is denoted as A) | 51.2 nM
CCO[C@@H]1C[C@H]2C(=O)NC3(CCC3)C(=O)N(C)[C@@H](C3CCCC3)C(=O)N(C)[C@H](C(=O)N(C)C)CC(=O)N(C)[C@@H](CC3CC3)C(=O)N[C@@H]([C@@H](C)CC)C(=O)N(C)CC(=O)N(C)[C@H]3C/C=C\CCN(C3=O)[C@@H](Cc3ccc(C(F)(F)F)cc3)C(=O)N(C)CC(=O)N[C@@H](CCc3ccc(Cl)c(Cl)c3)C(=O)N2C1 [PP1253] | 0.2 nM | A (a compound having 10 or more and less than 20 is denoted as A) | A (a compound having 10 or more and less than 20 is denoted as A) | 22.2 nM
CCO[C@@H]1C[C@H]2C(=O)NC3(CCC3)C(=O)N(C)[C@@H](C3CCCC3)C(=O)N(C)[C@H](C(=O)N(C)C)CC(=O)N(C)[C@@H](CC3CCCC3)C(=O)N[C@@H]([C@@H](C)CC)C(=O)N(C)CC(=O)N(C)[C@H]3C/C=C\CCN(C3=O)[C@@H](Cc3ccc(C(F)(F)F)cc3)C(=O)N(C)CC(=O)N[C@@H](CCc3ccc(Cl)c(Cl)c3)C(=O)N2C1 [PP1254] | 0.2 nM | AA (a compound having 20 or more is denoted as AA) | A (a compound having 10 or more and less than 20 is denoted as A) | 28.3 nM
CCC[C@H]1C(=O)N[C@@H]([C@@H](C)CC)C(=O)N(C)CC(=O)N(C)[C@H]2C/C=C\CCN(C2=O)[C@@H](Cc2ccc(C(F)(F)F)cc2)C(=O)N(C)CC(=O)N[C@@H](CCc2ccc3sccc3c2)C(=O)N2C[C@H](OCC)C[C@H]2C(=O)NC2(CCC2)C(=O)N(C)[C@@H](C2CCCC2)C(=O)N(C)[C@H](C(=O)N(C)C)CC(=O)N1C [PP1256] | 0.36 nM | A (a compound having 10 or more and less than 20 is denoted as A) | A (a compound having 10 or more and less than 20 is denoted as A) | 69 nM
CCCCCC[C@H]1C(=O)N[C@@H]([C@@H](C)CC)C(=O)N(C)CC(=O)N(C)[C@H]2C/C=C\CCN(C2=O)[C@@H](Cc2ccc(C(F)(F)F)cc2)C(=O)N(C)CC(=O)N[C@@H](CCc2ccc3sccc3c2)C(=O)N2C[C@H](OCC)C[C@H]2C(=O)NC2(CCC2)C(=O)N(C)[C@@H](C2CCCC2)C(=O)N(C)[C@H](C(=O)N(C)C)CC(=O)N1C [PP1259] | 0.49 nM | A (a compound having 10 or more and less than 20 is denoted as A) | A (a compound having 10 or more and less than 20 is denoted as A) | 62 nM
CCO[C@@H]1C[C@H]2C(=O)NC3(CCC3)C(=O)N(C)[C@@H](C3CCCC3)C(=O)N(C)[C@H](C(=O)N(C)C)CC(=O)N(C)[C@@H](CC3CCCC3)C(=O)N[C@@H]([C@@H](C)CC)C(=O)N(C)CC(=O)N(C)[C@H]3C/C=C\CCN(C3=O)[C@@H](Cc3ccc(C(F)(F)F)cc3)C(=O)N(C)CC(=O)N[C@@H](CCc3ccc4sccc4c3)C(=O)N2C1 [PP1261] | 0.44 nM | A (a compound having 10 or more and less than 20 is denoted as A) | A (a compound having 10 or more and less than 20 is denoted as A) | 76.8 nM
